{
  "source": "ChEMBL document CHEMBL1687870",
  "about": "“Antimicrobial isopropenyl-dihydrofuranoisoflavones from Crotalaria lachnophora” (2011)",
  "key": {"Klebsiella pneumoniae": {"system": "Klebsiella pneumoniae", "test": "Antimicrobial activity against Klebsiella pneumoniae DSM 681 at 1 ug/ul after 24 hrs by disk diffusion method", "format": "functional"}, "Pseudomonas aeruginosa": {"system": "Pseudomonas aeruginosa", "test": "Antimicrobial activity against Pseudomonas aeruginosa DSM 1128 at 1 ug/ul after 24 hrs by disk diffusion method", "format": "functional"}, "Escherichia coli": {"system": "Escherichia coli", "test": "Antimicrobial activity against Escherichia coli DSM 682 after 24 hrs by disk diffusion method", "format": "functional"}, "Candida albicans": {"system": "Candida albicans", "test": "Antifungal activity against Candida albicans DSM 1386 after 24 hrs by disk diffusion method", "format": "functional, organism-based"}, "Staphylococcus aureus": {"system": "Staphylococcus aureus", "test": "Antimicrobial activity against Staphylococcus aureus DSM 799 at 1 ug/ul after 24 hrs by disk diffusion method", "format": "functional"}, "Aspergillus niger": {"system": "Aspergillus niger", "test": "Antifungal activity against Aspergillus niger DSM 1988 after 48 hrs by disk diffusion method", "format": "functional, organism-based"}},
  "note": "Activity calls are given as the source filed them. The calls are words filed in the database; no cut-off is given here.",
  "data": [
    {"molecule": "C[C@@H]1O[C@@H](Oc2cc(O)c3c(=O)cc(-c4ccc(O)c(O)c4)oc3c2)[C@H](O)[C@H](O)[C@H]1O", "values": [
      {"measurement": "diameter of the inhibition zone (DIZ)", "setting": "Klebsiella pneumoniae", "value": 7.7, "unit": "mm"},
      {"measurement": "Activity", "setting": "Pseudomonas aeruginosa", "value": "inactive"},
      {"measurement": "diameter of the inhibition zone (DIZ)", "setting": "Escherichia coli", "value": 10.7, "unit": "mm"},
      {"measurement": "Activity", "setting": "Candida albicans", "value": "inactive"},
      {"measurement": "Activity", "setting": "Staphylococcus aureus", "value": "inactive"},
      {"measurement": "Activity", "setting": "Aspergillus niger", "value": "inactive"}
    ]},
    {"molecule": "O=c1c(-c2ccc(O)cc2O)coc2cc(O)cc(O)c12", "values": [
      {"measurement": "diameter of the inhibition zone (DIZ)", "setting": "Klebsiella pneumoniae", "value": 7, "unit": "mm"},
      {"measurement": "Activity", "setting": "Pseudomonas aeruginosa", "value": "inactive"},
      {"measurement": "diameter of the inhibition zone (DIZ)", "setting": "Escherichia coli", "value": 7, "unit": "mm"},
      {"measurement": "Activity", "setting": "Candida albicans", "value": "inactive"},
      {"measurement": "Activity", "setting": "Staphylococcus aureus", "value": "inactive"},
      {"measurement": "Activity", "setting": "Aspergillus niger", "value": "inactive"}
    ]},
    {"molecule": "C=C(C)C1Cc2c(O)cc3occ(-c4ccc(O)cc4O)c(=O)c3c2O1", "note": "(racemic)", "values": [
      {"measurement": "diameter of the inhibition zone (DIZ)", "setting": "Klebsiella pneumoniae", "value": 7, "unit": "mm"},
      {"measurement": "Activity", "setting": "Pseudomonas aeruginosa", "value": "inactive"},
      {"measurement": "diameter of the inhibition zone (DIZ)", "setting": "Escherichia coli", "value": 8.3, "unit": "mm"},
      {"measurement": "Activity", "setting": "Candida albicans", "value": "inactive"},
      {"measurement": "Activity", "setting": "Staphylococcus aureus", "value": "inactive"},
      {"measurement": "Activity", "setting": "Aspergillus niger", "value": "inactive"}
    ]},
    {"molecule": "COc1cc(-c2coc3cc(O)cc(O)c3c2=O)ccc1O", "note": "[3'-O-METHYLOROBOL]", "values": [
      {"measurement": "diameter of the inhibition zone (DIZ)", "setting": "Klebsiella pneumoniae", "value": 8.3, "unit": "mm"},
      {"measurement": "Activity", "setting": "Pseudomonas aeruginosa", "value": "inactive"},
      {"measurement": "diameter of the inhibition zone (DIZ)", "setting": "Escherichia coli", "value": 7, "unit": "mm"},
      {"measurement": "Activity", "setting": "Candida albicans", "value": "inactive"},
      {"measurement": "Activity", "setting": "Staphylococcus aureus", "value": "inactive"},
      {"measurement": "Activity", "setting": "Aspergillus niger", "value": "inactive"}
    ]},
    {"molecule": "COc1cc2occ(-c3ccc(O)cc3)c(=O)c2c(O)c1OC", "note": "[7-O-METHYLTECTORIGENIN]", "values": [
      {"measurement": "diameter of the inhibition zone (DIZ)", "setting": "Klebsiella pneumoniae", "value": 7, "unit": "mm"},
      {"measurement": "Activity", "setting": "Pseudomonas aeruginosa", "value": "inactive"},
      {"measurement": "diameter of the inhibition zone (DIZ)", "setting": "Escherichia coli", "value": 9.3, "unit": "mm"},
      {"measurement": "Activity", "setting": "Candida albicans", "value": "inactive"},
      {"measurement": "Activity", "setting": "Staphylococcus aureus", "value": "inactive"},
      {"measurement": "Activity", "setting": "Aspergillus niger", "value": "inactive"}
    ]},
    {"molecule": "CC1(C)S[C@@H]2[C@H](NC(=O)[C@H](N)c3ccccc3)C(=O)N2[C@H]1C(=O)O", "note": "[AMPICILLIN]", "values": [
      {"measurement": "diameter of the inhibition zone (DIZ)", "setting": "Klebsiella pneumoniae", "value": 11.7, "unit": "mm"},
      {"measurement": "Activity", "setting": "Pseudomonas aeruginosa", "value": "inactive"},
      {"measurement": "diameter of the inhibition zone (DIZ)", "setting": "Escherichia coli", "value": 24.3, "unit": "mm"},
      {"measurement": "Activity", "setting": "Staphylococcus aureus", "value": "inactive"}
    ]},
    {"molecule": "COc1cc(O)c2c(=O)c(-c3ccc(O)cc3O)coc2c1", "note": "[CAJANIN]", "values": [
      {"measurement": "diameter of the inhibition zone (DIZ)", "setting": "Klebsiella pneumoniae", "value": 9.7, "unit": "mm"},
      {"measurement": "Activity", "setting": "Pseudomonas aeruginosa", "value": "inactive"},
      {"measurement": "diameter of the inhibition zone (DIZ)", "setting": "Escherichia coli", "value": 7.3, "unit": "mm"},
      {"measurement": "Activity", "setting": "Candida albicans", "value": "inactive"},
      {"measurement": "Activity", "setting": "Staphylococcus aureus", "value": "inactive"},
      {"measurement": "Activity", "setting": "Aspergillus niger", "value": "inactive"}
    ]},
    {"molecule": "COc1cc(O)c2c(c1)OC[C@H](c1ccc(O)cc1OC)C2=O", "note": "[CAJANOL]", "values": [
      {"measurement": "diameter of the inhibition zone (DIZ)", "setting": "Klebsiella pneumoniae", "value": 9.3, "unit": "mm"},
      {"measurement": "Activity", "setting": "Pseudomonas aeruginosa", "value": "inactive"},
      {"measurement": "diameter of the inhibition zone (DIZ)", "setting": "Escherichia coli", "value": 7.3, "unit": "mm"},
      {"measurement": "Activity", "setting": "Candida albicans", "value": "inactive"},
      {"measurement": "Activity", "setting": "Staphylococcus aureus", "value": "inactive"},
      {"measurement": "Activity", "setting": "Aspergillus niger", "value": "inactive"}
    ]},
    {"molecule": "C=C(C)C1Cc2c(cc3oc4oc5cc(O)ccc5c4c(=O)c3c2O)O1", "note": "(stereo unspecified) [LACHNOISOFLAVONE B]", "values": [
      {"measurement": "diameter of the inhibition zone (DIZ)", "setting": "Klebsiella pneumoniae", "value": 7.3, "unit": "mm"},
      {"measurement": "Activity", "setting": "Pseudomonas aeruginosa", "value": "inactive"},
      {"measurement": "diameter of the inhibition zone (DIZ)", "setting": "Escherichia coli", "value": 7, "unit": "mm"},
      {"measurement": "Activity", "setting": "Candida albicans", "value": "inactive"},
      {"measurement": "Activity", "setting": "Staphylococcus aureus", "value": "inactive"},
      {"measurement": "Activity", "setting": "Aspergillus niger", "value": "inactive"}
    ]},
    {"molecule": "C=C(C)[C@H]1Cc2c(cc3occ(-c4ccc(O)cc4)c(=O)c3c2O)O1", "note": "[LICOAGROISOFLAVONE]", "values": [
      {"measurement": "diameter of the inhibition zone (DIZ)", "setting": "Klebsiella pneumoniae", "value": 9.3, "unit": "mm"},
      {"measurement": "Activity", "setting": "Pseudomonas aeruginosa", "value": "inactive"},
      {"measurement": "diameter of the inhibition zone (DIZ)", "setting": "Escherichia coli", "value": 7.3, "unit": "mm"},
      {"measurement": "Activity", "setting": "Candida albicans", "value": "inactive"},
      {"measurement": "Activity", "setting": "Staphylococcus aureus", "value": "inactive"},
      {"measurement": "Activity", "setting": "Aspergillus niger", "value": "inactive"}
    ]},
    {"molecule": "COc1cc(O)c2c(=O)c(-c3ccc(O)cc3)coc2c1", "note": "[PRUNETIN]", "values": [
      {"measurement": "diameter of the inhibition zone (DIZ)", "setting": "Klebsiella pneumoniae", "value": 9.3, "unit": "mm"},
      {"measurement": "Activity", "setting": "Pseudomonas aeruginosa", "value": "inactive"},
      {"measurement": "diameter of the inhibition zone (DIZ)", "setting": "Escherichia coli", "value": 7.3, "unit": "mm"},
      {"measurement": "Activity", "setting": "Candida albicans", "value": "inactive"},
      {"measurement": "Activity", "setting": "Staphylococcus aureus", "value": "inactive"},
      {"measurement": "Activity", "setting": "Aspergillus niger", "value": "inactive"}
    ]},
    {"molecule": "CN[C@@H]1[C@H](O[C@H]2[C@H](O[C@H]3[C@H](O)[C@@H](O)[C@H](N=C(N)N)[C@@H](O)[C@@H]3N=C(N)N)O[C@@H](C)[C@]2(O)C=O)O[C@@H](CO)[C@H](O)[C@H]1O", "note": "[STREPTOMYCIN]", "values": [
      {"measurement": "diameter of the inhibition zone (DIZ)", "setting": "Klebsiella pneumoniae", "value": 21.3, "unit": "mm"},
      {"measurement": "Activity", "setting": "Pseudomonas aeruginosa", "value": "inactive"},
      {"measurement": "diameter of the inhibition zone (DIZ)", "setting": "Escherichia coli", "value": 19.3, "unit": "mm"},
      {"measurement": "Activity", "setting": "Staphylococcus aureus", "value": "inactive"}
    ]},
    {"molecule": "CN(C)[C@@H]1C(O)=C(C(N)=O)C(=O)[C@@]2(O)C(O)=C3C(=O)c4c(O)cccc4[C@@](C)(O)[C@H]3C[C@@H]12", "note": "[TETRACYCLINE]", "values": [
      {"measurement": "diameter of the inhibition zone (DIZ)", "setting": "Klebsiella pneumoniae", "value": 26.3, "unit": "mm"},
      {"measurement": "diameter of the inhibition zone (DIZ)", "setting": "Pseudomonas aeruginosa", "value": 17.7, "unit": "mm"},
      {"measurement": "diameter of the inhibition zone (DIZ)", "setting": "Escherichia coli", "value": 22.3, "unit": "mm"},
      {"measurement": "diameter of the inhibition zone (DIZ)", "setting": "Staphylococcus aureus", "value": 20.7, "unit": "mm"}
    ]},
    {"molecule": "GENTAMICIN", "values": [
      {"measurement": "inhibition zone (IZ)", "setting": "Klebsiella pneumoniae", "value": 14.3, "unit": "mm"},
      {"measurement": "inhibition zone (IZ)", "setting": "Pseudomonas aeruginosa", "value": 20.3, "unit": "mm"},
      {"measurement": "inhibition zone (IZ)", "setting": "Escherichia coli", "value": 16.3, "unit": "mm"},
      {"measurement": "inhibition zone (IZ)", "setting": "Staphylococcus aureus", "value": 15.3, "unit": "mm"}
    ]}
  ]
}
